Several values for one entry are separate records, joined by “and”; a condition that tells them apart may be missing. Equal values may be shown once.
Tests used:
[1] = system: 6-PGD; test: Western blot of 6-PGD expression after inducible shRNA knockdown; type: cell-based, human; settings: H1975 cells
Description: (§1) To test the functional role of 6-PGD in human non small cell lung carcinoma (NSCLC), we used H1975 cells as our model system (FIG. 2A). These adenocarcinoma cells harbor two mutations in the EGFR (L858R/T790M) and are widely used to study the mechanism and treatment of gefitinib/erlotinib-resistant lung cancer cells. We chose to use an inducible shRNA system to knock down 6-PGD expression. Three nonoverlapping shRNAs were chosen in these experiments. […] Importantly, 6-PGD expression knockdown caused a substantial decrease in cell proliferation. To further corroborate the involvement of 6-PGD in NSCLC proliferation in vitro, we performed expression rescue experiments (FIG. 2B). H1975 cells expressing control shRNA or 6-PGD shRNA1 were transduced by either empty- or mouse-6PGD retrovirus. […] Overexpression of mouse 6-PGD alone enhanced H1975 cell growth. […] Our result confirmed that the growth inhibition was due to 6-PGD knockdown and not a non-specific artifact of the shRNA.

[2] = system: H1975 cells; test: Cell proliferation of H1975 cells upon knockdown; type: cell-based, human; settings: 6-PGD knockdown
Description: as §1
The dramatic decrease in cell proliferation when 6-PGD was knocked down implies that the oxidative branch of the pentose phosphate pathway (PPP) could be indispensable for cell growth. […] To address this discrepancy, we next knocked down G6PD by transient siRNA transfection in H1975 cells. […] Therefore, the dramatic growth inhibition observed when 6-PGD was knocked down was not simply a result of PPP blockade. […]

[3] = system: senescence-associated beta galactosidase (SA-β-GAL) activity; test: Senescence-associated beta galactosidase (SA-β-GAL) staining and chromogenic assay; type: cell-based, human; settings: cells with 6-PGD knockdown
Description: We noticed that the cells with 6-PGD knocked down were enlarged and flattened-shapes characteristic of cells undergoing senescence. We therefore stained the cells for senescence-associated beta galactosidase (SA-β-GAL) activity. Because shRNA1 and shRNA2 had the most dramatic effects on 6-PGD expression and cell proliferation, we opted to test these two shRNAs in these experiments. […] Therefore, we concluded that suppression of 6-PGD induces cellular senescence in these cancer cells.
We tested whether the use of glucose or fructose in the medium might influence the phenotypic outcome of 6-PGD suppression. Fructose can be used to generate glycolytic metabolites via different pathways. For example, in the liver, fructose can be phosphorylated by fructokinase to yield fructose-1-phosphate and ultimately glyceraldehyde-3-phosphate to re-enter glycolysis. Fructose can also enter glycolysis when phosphorylated by hexokinase to become fructose-6-phosphate. We reasoned that if H1975 could metabolize fructose by these mechanisms, cells grown in fructose without glucose would likely be devoid of glucose-6-phosphate, bypassing the oxidative branch of the PPP. This scenario may be similar to the PPP shutdown by means of G6PD depletion. H1975 cells were treated with doxycycline to induce 6-PGD knockdown in 2 g/L fructose (no glucose). […]

[4] = system: p53; test: Western blot of p53 expression in cells with 6-PGD knockdown; type: cell-based, human; settings: H1975 cells
Description: One of the main mechanisms for cellular senescence induction is the p53 pathway. Therefore we hypothesized that p53 expression might be increased in cells with 6-PGD knockdown.

[5] = system: H1975 cells; test: Oxygen consumption rate (OCR); type: cell-based, human
Description: We suspected that upon 6-PGD knockdown, these cells might have maintained NADPH level by enhanced glutaminolysis, another major mechanism for NADPH production. We therefore examined the rate of oxygen consumption of these cells, as NADPH production via glutaminolysis requires oxygen.

[6] = system: H1975 cells; test: Metabolite levels by mass spectrometry upon 6-PGD knockdown; type: cell-based, human; settings: H1975, doxycycline three days, vs control shRNA
Method: Both control- and 6-PGD shRNA1-expressing H1975 cells were treated with doxycycline for three days. Metabolites were extracted for analysis by mass spectrometry. Results are grouped according to metabolic pathways (Table 5). […] Specifically, as might be expected, 6-phospho-D-gluconate and D-glucono-δ-lactone-6-phosphate levels were up by 11 and 7.9 fold, respectively. Direct determination of the effects in the non-oxidative branch was more difficult, as levels of some key intermediates such as xylulose-5-phosphate and D-sedo-heptulose-7-phosphate were not determined in our mass spectrometric analysis. However, there was no change in the level of total ribose phosphates, downstream products of the PPP. Importantly, levels of all the triphosphate nucleotides essential for DNA and RNA synthesis were essentially unchanged. […] Glycolysis also appeared to be affected by 6-PGD knockdown. Both glucose-6-phosphate and fructose-6-phosphate levels were increased, perhaps due to a backlog in the PPP. […] We believe that these intermediates were shunted to the non-oxidative PPP via the transketolase reactions using glyceraldehyde-3-phosphate as the entry point. These transketolase reactions would compensate for the blockade at 6-PGD and provide a carbon source for ribose phosphate production and maintenance of dNTP/NTP levels. […] In particular NADPH level was determined by this metabolomic analysis to be also unchanged by 6-PGD knockdown, consistent with result obtained by the colorimetric assay (FIG. 5A).

[7] = system: H1975 cells; test: H1975 xenograft tumor growth in nude mice; type: in vivo; settings: H1975 cells induced with doxycycline, subcutaneous in nude mice, tumors weighed after 18 days
Description: We sought to test whether 6-PGD knockdown would inhibit tumor growth in a xenograft model. Control shRNA-, 6-PGD shRNA1, and 6-PGD shRNA2-H1975 cells were induced with doxycycline in vitro for three days prior to subcutaneous injection into nude mice. Mice were fed with doxycycline supplemented in drinking water. Tumors were excised after 18 days and weighed.

[8] = system: mouse 6-PGD; test: Western blot of exogenous mouse 6-PGD expression in rescue experiment; type: cell-based; settings: H1975 cells transduced with mouse-6PGD retrovirus, doxycycline induction
Description: as §1

For “shRNA1: 6-PGD specific shRNA from Open Biosystems, Oligo ID V3LHS_381993, mature sequence AGU UUG AUG GUG AUA AGA A (guide AGUUUGAUGGUGAUAAGAA; shRNA hairpin; mature sequence only)”, the “expression of 6-PGD” value [1] was “most effective”, the cell proliferation [2] was “significantly blocked proliferation” and the “number of cells positive for SA-β-GAL staining” value [3] was “significantly increased”. For the same substance, the p53 expression [4] was “significantly upregulated”, the “oxygen consumption rate (OCR)” value [5] was “significant increase” and the “Fold Change Glutamate” value ([6]; Glutamine/Glutamate) was −1.1 fold. For the same substance, the “Fold Change Glutamine” value ([6]; Glutamine/Glutamate) was −1.1 fold, the “Fold Change 1,3-Diphopshateglycerate” value ([6]; Glycolysis) was 0.0 fold and the “Fold Change 3-Phosphoglycerate” value ([6]; Glycolysis) was −2.1 fold. The “Fold Change D-Glyceraldehdye-3-phosphate” value ([6]; Glycolysis) was −3.8 fold, the “Fold Change Dihyroxyacetone-phosphate” value ([6]; Glycolysis) was −5.9 fold and the “Fold Change Fructose-1,6-bisphosphate” value ([6]; Glycolysis) was −4.6 fold. For the same substance, the “Fold Change Fructose-6-phosphate” value ([6]; Glycolysis) was 1.4 fold, the “Fold Change Glucose-6-phosphate” value ([6]; Glycolysis) was 1.8 fold and the “Fold Change Lactate” value ([6]; Glycolysis) was −1.2 fold. The “Fold Change Phosphoenolpyruvate” value ([6]; Glycolysis) was −2.8 fold, the “Fold Change Pyruvate” value ([6]; Glycolysis) was 1.3 fold and the “Fold Change ATP” value ([6]; NTPs/dNTPs) was 1.2 fold. The “Fold Change CTP” value ([6]; NTPs/dNTPs) was 1.0 fold, the “Fold Change GTP” value ([6]; NTPs/dNTPs) was 1.5 fold and the “Fold Change UTP” value ([6]; NTPs/dNTPs) was 1.2 fold. The “Fold Change dATP” value ([6]; NTPs/dNTPs) was −1.1 fold, the “Fold Change dCTP” value ([6]; NTPs/dNTPs) was 1.0 fold and the “Fold Change dGTP” value ([6]; NTPs/dNTPs) was 1.2 fold. The “Fold Change dTTP” value ([6]; NTPs/dNTPs) was −1.2 fold, the “Fold Change D-Glucono-δ-lactone-6-phosphate” value ([6]; PPP) was 7.9 fold and the “Fold Change Ribose-phosphate” value ([6]; PPP) was 1.2 fold. The “Fold Change 6-Phospho-D-gluconate” value ([6]; PPP, listed as 6-PGD shRNA1) was 11 fold and 11.0 fold, the “Fold Change Glutathione” value ([6]; REDOX) was −1.3 fold and the “Fold Change Glutathione disulfide” value ([6]; REDOX) was 1.0 fold. The “Fold Change NAD+” value ([6]; REDOX) was 1.2 fold, the “Fold Change NADH” value ([6]; REDOX) was −1.5 fold and the “Fold Change NADP+” value ([6]; REDOX) was 1.3 fold. For the same substance, the “Fold Change NADPH” value ([6]; REDOX) was −1.1 fold, the “Fold Change Acetyl-CoA” value ([6]; TCA) was 1.6 fold and the “Fold Change Citrate” value ([6]; TCA) was 1.1 fold. The “Fold Change Fumarate” value ([6]; TCA) was 1.0 fold, the “Fold Change Isocitrate” value ([6]; TCA) was −1.1 fold and the “Fold Change Malate” value ([6]; TCA) was −1.3 fold. The “Fold Change Oxaloacetate” value ([6]; TCA) was −1.1 fold, the “Fold Change Succinate” value ([6]; TCA) was −1.3 fold and the “Fold Change α-Ketoglutarate” value ([6]; TCA) was −1.2 fold. For the same substance, the tumor growth [7] was “significantly retarded tumor growth” and the “expression of mouse 6-PGD” value [8] was “without affecting the expression of mouse 6-PGD”.

With “shRNA2: 6-PGD specific shRNA from Open Biosystems, Oligo ID V3LHS_381995, mature sequence AGG ACU GUC UCC AAA GUU G (guide AGGACUGUCUCCAAAGUUG; shRNA hairpin; mature sequence only)” the “expression of 6-PGD” value [1] was “most effective”, the “number of cells positive for SA-β-GAL staining” value [3] was “significantly increased” and the p53 expression [4] was “significantly upregulated”. For the same substance, the “oxygen consumption rate (OCR)” value [5] was “significant increase” and the tumor growth [7] was “significantly retarded tumor growth”.
